Experimental data: patent publication US20090306149A1, “USE OF BIARYLCARBOXAMIES IN THE TREATMENT OF HEDGEHOG PATHWAY-RELATED DISORDERS” (priority 2006, published 2009)
Like-named read-outs stand apart in the source and are kept apart here.

Columns and labels:
[1] = test system: Shh-mediated pathway activation (Gli-luciferase activity of TMHh12 cells); assay: Gli-Luc reporter assay for Hh pathway inhibition in TMHh12 cells in the presence of Shh protein; type: cell-based; conditions: Mus musculus, read-out: EC50 to block Shh-mediated pathway activation
Method: (§1) TM3 cells (mouse) transfected with a new proprietary reporter construct (pTA-8xGli-Luc). The pTA-8xGli-Luc reporter produces approx. 4 fold more luciferase activity than classical 8xGli-LUC. A highly responsive stable clone has been selected (TMHh12) with >10-fold signal/noise ratio and <10% CV in 384 well format.
Gli-Luc Reporter Assay for Hh Pathway Inhibition
Gli-luciferase activity of TMHh12 cells was determined in the presence of Shh protein.

[2] = test system: gli-luciferase activity (Hh pathway) in TMHh12 cells; assay: "IC50 shift" gli-luciferase reporter assay in TMHh12 cells with a small molecule Smo agonist; type: cell-based, mouse; conditions: Mus musculus, TMHh12, TMHh12 cells
Method: as §1
“IC50 shift” assays in TMHh12 cells. IC50 for antagonism of gli-luciferase activity was tested in the presence of increasing concentrations of a small molecule agonist which binds to Smo with 1 nM affinity and activates the Hh pathway.
Table 1 lists the IC50 of antagonists determined in the presence of different (1 nM and 25 nM) concentrations of a small agonist of Smoothened.

[3] = molecular target: Smoothened (Homo sapiens, UniProt Q99835); assay: Smo binding assay, displacement of a small molecule agonist of Smoothened, filter binding format
Source text: A Smo binding assay was developed using radio-labeled smoothened agonist for compound competition.
Table 1, infra; lists the IC50 for displacement of a small molecule agonist of Smoothened determined in a filter binding format.

[4] = 1 nM small molecule Smo agonist, read-out: Gli_luc (1 nM Smo agonist) IC50
[5] = 25 nM small molecule Smo agonist, read-out: Gli_luc (25 nM Smo agonist) IC50

Sequence of Smoothened (Q99835 28-787): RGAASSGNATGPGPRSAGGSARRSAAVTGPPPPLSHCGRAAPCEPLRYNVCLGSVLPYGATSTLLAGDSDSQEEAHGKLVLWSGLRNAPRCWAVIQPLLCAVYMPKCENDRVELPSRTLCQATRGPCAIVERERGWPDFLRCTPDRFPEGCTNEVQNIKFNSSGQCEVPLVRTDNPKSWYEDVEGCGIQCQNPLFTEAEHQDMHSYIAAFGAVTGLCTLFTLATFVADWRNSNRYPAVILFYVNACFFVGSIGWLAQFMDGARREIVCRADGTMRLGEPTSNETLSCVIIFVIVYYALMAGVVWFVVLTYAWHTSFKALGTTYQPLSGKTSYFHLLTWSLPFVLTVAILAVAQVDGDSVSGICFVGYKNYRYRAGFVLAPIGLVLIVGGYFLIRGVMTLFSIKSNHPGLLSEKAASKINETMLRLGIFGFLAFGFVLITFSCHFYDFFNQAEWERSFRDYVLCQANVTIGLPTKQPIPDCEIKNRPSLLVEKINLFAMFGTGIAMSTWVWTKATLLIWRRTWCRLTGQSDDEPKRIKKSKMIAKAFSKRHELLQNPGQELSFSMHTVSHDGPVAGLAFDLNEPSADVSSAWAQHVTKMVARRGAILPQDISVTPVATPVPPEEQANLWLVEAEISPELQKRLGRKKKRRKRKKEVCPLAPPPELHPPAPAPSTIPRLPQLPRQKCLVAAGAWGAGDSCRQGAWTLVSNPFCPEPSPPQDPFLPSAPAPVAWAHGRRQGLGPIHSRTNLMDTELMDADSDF

| Structure (SMILES) | EC50 [1] [nM] | IC50 [2, 4] [nM] | IC50 [2, 5] [nM] | IC50 [3] [nM] |
| --- | --- | --- | --- | --- |
| Cc1cccc(C(=O)Nc2ccc3c(c2)C[C@@H](NCc2ccccn2)C3)c1-c1ccc(C(F)(F)F)cc1 [Example 6, 6-Methyl-4′-trifluoromethyl-biphenyl-2-carboxylic acid {(S)-2-[(pyridin-2-ylmethyl)-amino]-indan-5-yl}-amide] | 9.4 | 19 | 279 | 15 |
| Cc1cccc(C(=O)Nc2ccc3c(c2)C[C@@H](NCc2cccn2C)C3)c1-c1ccc(C(F)(F)F)cc1 [Example 15] | – | < 5 | 479 | 18 |
| Cc1cccc(C(=O)Nc2ccc3c(c2)C[C@@H](NCc2ccncc2)C3)c1-c1ccc(C(F)(F)F)cc1 [Example 20] | – | 94 | 964 | 151 |
| COc1ccc(OC)c(CN[C@H]2Cc3ccc(NC(=O)c4cccc(C)c4-c4ccc(C(F)(F)F)cc4)cc3C2)c1 [Example 21] | – | 254 | 646 | 1 |
| CC(=O)Nc1ccc(CN[C@H]2Cc3ccc(NC(=O)c4cccc(C)c4-c4ccc(C(F)(F)F)cc4)cc3C2)cc1 [Example 22] | – | 456 | 3260 | 444 |
| COc1ccc(CN[C@H]2Cc3ccc(NC(=O)c4cccc(C)c4-c4ccc(C(F)(F)F)cc4)cc3C2)cc1 [Example 23] | – | 349 | 3040 | 93 |
| Cc1cccc(C(=O)Nc2ccc3c(c2)C[C@@H](NCc2ccc4c(c2)OC(F)(F)O4)C3)c1-c1ccc(C(F)(F)F)cc1 [Example 25] | – | 409 | 2500 | 90 |
| Cc1cccc(C(=O)Nc2ccc3c(c2)C[C@@H](NCc2ccc(Cl)s2)C3)c1-c1ccc(C(F)(F)F)cc1 [Example 26] | – | 35 | 458 | 8 |
| Cc1cccc(C(=O)Nc2ccc3c(c2)C[C@@H](NCc2ccc(-n4ccnc4)cc2)C3)c1-c1ccc(C(F)(F)F)cc1 [Example 28] | – | 12 | 481 | 2 |
| Cc1cccc(C(=O)Nc2ccc3c(c2)C[C@@H](NCc2cnc4ccccc4c2)C3)c1-c1ccc(C(F)(F)F)cc1 [Example 29] | – | 1670 | 4920 | 490 |
| Cc1cccc(C(=O)Nc2ccc3c(c2)C[C@@H](NCc2cccnc2Cl)C3)c1-c1ccc(C(F)(F)F)cc1 [Example 30] | – | 136 | 1440 | 39 |
| Cc1cccc(C(=O)Nc2ccc3c(c2)C[C@@H](NCc2ccc4c(c2)CCO4)C3)c1-c1ccc(C(F)(F)F)cc1 [Example 31] | – | 281 | 3040 | 28 |
| COc1ccc(CN[C@H]2Cc3ccc(NC(=O)c4cccc(C)c4-c4ccc(C(F)(F)F)cc4)cc3C2)cn1 [Example 32] | – | 261 | 2860 | 130 |
| Cc1cccc(C(=O)Nc2ccc3c(c2)C[C@@H](N(C)Cc2ccccn2)C3)c1-c1ccc(C(F)(F)F)cc1 [Example 38] | – | 1720 | 13300 | 6250 |
| Cc1cccc(C(=O)Nc2ccc3c(c2)CC(NCc2nccn2C)C3)c1-c1ccc(C(F)(F)F)cc1 (stereo not shown) [Example 40] | – | 145 | 1910 | 445 |
| Cc1cccc(C(=O)Nc2ccc3c(c2)CC(NCc2cc4ccccc4o2)C3)c1-c1ccc(C(F)(F)F)cc1 (stereo not shown) [Example 41] | – | 82 | 616 | 3 |
| Cc1cccc(C(=O)Nc2ccc3c(c2)CC(NCc2ccccn2)C3)c1-c1ccc(C(F)(F)F)cc1 (stereo not shown) [Example 45] | – | 85 | 1140 | 141 |
| COC(=O)NC(CNC1Cc2ccc(NC(=O)c3cccc(C)c3-c3ccc(C(F)(F)F)cc3)cc2C1)Cc1ccccc1 (stereo not shown) [Example 49] | – | 226 | 2680 | 118 |
| Cc1cccc(C(=O)Nc2ccc3c(c2)CC(NCC2CCCCC2)C3)c1-c1ccc(C(F)(F)F)cc1 (stereo not shown) [Example 50] | – | 901 | 11900 | 621 |
| COC(=O)N1CCC(CNC2Cc3ccc(NC(=O)c4cccc(C)c4-c4ccc(C(F)(F)F)cc4)cc3C2)CC1 (stereo not shown) [Example 51] | – | 7000 | 11200 | 13700 |
| O=C(Nc1ccc2c(c1)CC(NCCc1ccccc1)C2)c1ccccc1-c1ccc(C(F)(F)F)cc1 (stereo not shown) [Example 53] | – | 261 | 1800 | 7910 |
| Cc1ccc(-c2ccc(C(F)(F)F)cc2)c(C(=O)Nc2ccc3c(c2)CC(NCc2ccccn2)C3)c1 (stereo not shown) [Example 54] | – | 8680 | 6800 | 16700 |
| O=C(Nc1ccc2c(c1)CC(NCc1ccccc1)C2)c1ccccc1-c1ccc(C(F)(F)F)cc1 (stereo not shown) [Example 56] | – | 165 | 4180 | 271 |

| Structure (SMILES) | EC50 [1] [nM] | IC50 [2, 4] [nM] | IC50 [2, 5] [nM] | IC50 [3] [nM] |
| --- | --- | --- | --- | --- |
| Cc1cccc(C(=O)Nc2ccc3c(c2)CC(NCc2nc4ccccc4n2C)C3)c1-c1ccc(C(F)(F)F)cc1 (stereo not shown) [Example 57] | – | 3060 | 17400 | 28 |
| CCCNC1Cc2ccc(NC(=O)c3cccc(C)c3-c3ccc(C(F)(F)F)cc3)cc2C1 (stereo not shown) [Example 58] | – | 651 | 10100 | 4300 |
| Cc1cccc(C(=O)Nc2ccc3c(c2)CC(NCc2cccn2C)C3)c1-c1ccc(C(F)(F)F)cc1 (stereo not shown) [Example 59] | – | 112 | 3490 | 21 |
| O=C(Nc1ccc2c(c1)CC(NCc1ncc[nH]1)C2)c1cccc(C(F)(F)F)c1-c1ccc(C(F)(F)F)cc1 (stereo not shown) [Example 60] | – | 13200 | 23600 | 3650 |
| Cc1cccc(C(=O)Nc2ccc3c(c2)CC(NCc2c[nH]c4ccccc24)C3)c1-c1ccc(C(F)(F)F)cc1 (stereo not shown) [Example 61] | – | 2100 | 11900 | 299 |
| Cc1cccc(C(=O)Nc2ccc3c(c2)CC(NCc2ccco2)C3)c1-c1ccc(C(F)(F)F)cc1 (stereo not shown) [Example 62] | – | 141 | 1630 | 103 |
| Cc1cccc(C(=O)Nc2ccc3c(c2)CC(NCc2ccoc2)C3)c1-c1ccc(C(F)(F)F)cc1 (stereo not shown) [Example 63] | – | 686 | 14000 | 493 |
| Cc1cccc(C(=O)Nc2ccc3c(c2)CC(NCc2ccc(-c4ccc(Cl)cc4)o2)C3)c1-c1ccc(C(F)(F)F)cc1 (stereo not shown) [Example 64] | – | 48 | 1310 | 135 |
| Cc1cccc(C(=O)Nc2ccc3c(c2)CC(NCc2cccnc2)C3)c1-c1ccc(C(F)(F)F)cc1 (stereo not shown) [Example 66] | – | 246 | 10000 | 593 |
| Cc1cccc(C(=O)Nc2ccc3c(c2)CC(NCc2ccncc2)C3)c1-c1ccc(C(F)(F)F)cc1 (stereo not shown) [Example 67] | – | 142 | 4190 | 486 |
| Cc1cccc(C(=O)Nc2ccc3c(c2)CCC(NCc2ccccn2)CC3)c1-c1ccc(C(F)(F)F)cc1 (stereo not shown) [Example 68] | – | 138 | 4860 | 367 |
| Cc1cccc(C(=O)Nc2ccc3c(c2)CCC(NCc2ccccc2)CC3)c1-c1ccc(Cl)cc1 (stereo not shown) [Example 69] | – | 2490 | 12600 | 619 |
| Cc1cccc(C(=O)Nc2ccc3c(c2)CC(NCc2ccccc2F)C3)c1-c1ccc(C(F)(F)F)cc1 (stereo not shown) [Example 71] | – | 5 | 235 | 11 |
| Cc1ccc(C(=O)Nc2ccc3c(c2)C[C@H](NCc2ccccn2)C3)c(-c2ccccc2)c1 [Example 73] | – | 99 | 2240 | 936 |
| Cc1cccc(C(=O)Nc2ccc3c(c2)C[C@@H](Nc2ccccc2)C3)c1-c1ccc(C(F)(F)F)cc1 [Example 74, 6-Methyl-4′-trifluoromethyl-biphenyl-2-carboxylic acid ((S)-2-phenylamino-indan-5-yl)-amide] | – | 19 | 557 | 47 |
| CCOC(=O)NC1CCc2ccc(NC(=O)c3cccc(C)c3-c3ccc(C(F)(F)F)cc3)cc2CC1 (stereo not shown) [Example 84] | – | 700 | 4480 | 881 |
| CS(=O)(=O)NC1Cc2ccc(NC(=O)c3cccc(F)c3-c3ccc(C(F)(F)F)cc3)cc2C1 (stereo not shown) [Example 92] | – | 1010 | 1300 | 60 |
| CCCCS(=O)(=O)NC1Cc2ccc(NC(=O)c3cccc(C)c3-c3ccc(C(F)(F)F)cc3)cc2C1 (stereo not shown) [Example 102] | – | 1900 | – | 217 |
| Cc1cccc(C(=O)Nc2ccc3c(c2)CCC(NS(C)(=O)=O)CC3)c1-c1ccc(C(F)(F)F)cc1 (stereo not shown) [Example 103] | – | 4780 | 10200 | 3200 |
| O=C(Nc1ccc2c(c1)CCC(NS(=O)(=O)c1ccccc1F)CC2)c1ccccc1-c1ccc(C(F)(F)F)cc1 (stereo not shown) [Example 104] | – | 3560 | – | 3520 |
| Cc1cccc(C(=O)Nc2ccc3c(c2)CCC(NS(=O)(=O)c2cccs2)CC3)c1-c1ccc(C(F)(F)F)cc1 (stereo not shown) [Example 105] | – | 833 | 20400 | 338 |
| Cc1cccc(C(=O)Nc2ccc3c(c2)CCC(NS(=O)(=O)c2ccccc2F)CC3)c1-c1ccc(C(F)(F)F)cc1 (stereo not shown) [Example 106] | – | 5960 | – | 330 |
